Measurements reported in patent publication US5360613A, “Method of reducing blood levels of total cholesterol and low-density lipoprotein cholesterol” (Iowa State University Research Foundation, Inc., priority 1993, dated 1994).

Test system: plasma cholesterol and triglycerides
Experiment: Pig feeding study, plasma cholesterol and triglycerides (Example III, Table C)
Assay type: in vivo, pigs
Conditions: for Plasma Triglycerides: control 107, ns; for Plasma Cholesterol: control 135
Protocol: A further large mammal study was carried out with pigs. Pigs comprise test animals which are more similar in certain respects to humans than ruminants.
Control: 60 g. of calcium
The pigs were housed in pens of two animals each and were allowed ad libitum access to food and water. Pigs were approximately 160 lbs. at the start of the experiment and were 240 lbs. at the end. All pigs were castrate males. At day 28 and day 43 of the experiment blood was collected from the anterior vena cava by venipuncture. Blood was collected into EDTA containing tubes, centrifuged and frozen until analyzed. At approximately 100 days of the experiment half of the animals (32) were slaughtered, and at 120 days the remaining 32 animals were slaughtered. At the time of slaughter the abdominal aorta was dissected out and external fat removed. The aorta was then split lengthwise and 1/2 fixed in formaldehyde for 48 hours. At this time aortas were removed, stretched over a 6 inch stick, washed in ethanol and stained with a lipid stain for 2 hours. After a 1 hour wash aortas were blotted and examined. All the aortas from a group were laid out on a white bench and arranged in order from least sever to most sever. The least sever had no dark red streaks on the aorta or around the small vertebral vessels leaving the aorta. The most sever lesions had multiple streaks in the middle of the aorta and dark red deposits in turbulent areas such as the branching of vessels from the aorta. The ordered aortas were then assigned a consecutive decimal number. The first (least severe) was assigned 0 and the most severe was assigned 3.2 Plasma cholesterol and triglycerides were measured by an enzyme-colorimetric assay (Sigma).
statistical analysis was accomplished by the general linear model procedure of the Statistical Analysis System (SAS). The model included the main effects of treatment and pen number. T-tests were conducted from the ANOVA standard error, to compare the HMB treatments to the control. […] It appeared that HMB can partially prevent the formation of pre-atherosclerotic lesions. No effect of KIC was noted relative to any parameter.

CC(C)(O)CC(=O)O [HMB, β-hydroxy-β-methylbutyric acid]
Plasma Triglycerides (dietary .01%): 105 mg %
Plasma Cholesterol (dietary .01%, HMB C vs. .01% p .14): 120 mg %
Plasma Triglycerides (dietary .05%): 109 mg %
Plasma Cholesterol (dietary .05%, HMB p .05, KIC ns): 118 mg %
